The results in this text go back to US20260200928A1, “THERAPEUTIC COMPOUNDS” (Sanofi, priority 2022, published 2026).

Structures are written as SMILES.

In general, IC50 refers to the concentration needed to halve the response being measured.

The assay has as its target T1, human IL-17A (Homo sapiens, UniProt Q16552).
T1 construct: purchased R&D Systems 7955-IL/CF
T1 sequence (Q16552 24-155): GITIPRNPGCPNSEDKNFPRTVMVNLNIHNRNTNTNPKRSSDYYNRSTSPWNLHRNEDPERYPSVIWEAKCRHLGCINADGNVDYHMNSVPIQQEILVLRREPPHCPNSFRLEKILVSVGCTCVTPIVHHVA
As to the kind of experiment: IL-17A AlphaLISA competition assay (block of IL-17A binding to its receptor IL-17RA). The note with it: mean IC50 (n≥2), block of IL-17A binding to IL-17RA. Summed up: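 Human recombinant IL-17A (7.5 nM stock) pre-incubated 30 min at RT with compound, then IL-17RA/Fc (5 nM stock) added for 90 min; AlphaLISA read with anti-Fc acceptor beads, biotinylated anti-IL-17A antibody (5 nM) and streptavidin donor beads (3 h, dark). IC50 from 4-parameter logistic fit, normalised to DMSO and 4 μM reference inhibitor; n≥2.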
In general terms: Alpha assays give light when donor and acceptor beads are brought close together.

The compound `COCC(c1ccnc(NC(=O)C(NC(=O)C(F)(F)C(C)C)C2CCC(C)CC2)c1)N1CC(C(F)(F)F)NC1=O` (single isomer, unassigned) [Example 255] showed a 50% inhibitory concentration (IC50) of 71 nM.

In turn, `COC[C@H](c1ccnc(NC(=O)C(NC(=O)c2nonc2C2CC2)C2CCC(F)CC2)c1)N1C[C@@H](C(F)(F)F)NC1=O` (single isomer, unassigned) [Example 276] gave a 50% inhibitory concentration (IC50) of 24 nM.

Regarding `COC[C@H](c1ccnc(NC(=O)C(NC(=O)c2nonc2C2CC2)C2CCC(F)CC2)c1)N1C[C@@H](C(F)(F)F)NC1=O` (single isomer, unassigned) [Example 277], the 50% inhibitory concentration (IC50) stood at 44 nM.

`COC[C@H](c1ccnc(NC(=O)C(NC(=O)c2nonc2C2CC2)C2CCC(F)CC2)c1)N1C[C@@H](C(F)(F)F)NC1=O` (single isomer, unassigned) [Example 278] gave an IC50 of 1890 nM.

As to `COC[C@H](c1ccnc(NC(=O)C(NC(=O)c2nonc2C2CC2)C2CCC(F)CC2)c1)N1C[C@@H](C(F)(F)F)NC1=O` (single isomer, unassigned) [Example 279], the IC50 came out at 12000 nM.

`CCn1nccc1C(=O)NC(C(=O)Nc1cc([C@@H](COC)N2C[C@@H](C(F)(F)F)NC2=O)ccn1)C1CCC(F)CC1` (single isomer, unassigned) [Example 280] yielded a concentration for half-maximal inhibition (IC50) of 65 nM.

As to `COC[C@H](c1ccnc(NC(=O)C(NC(=O)c2nocc2OCC(F)F)C2CCC(F)CC2)c1)N1C[C@@H](C(F)(F)F)NC1=O` (single isomer, unassigned) [Example 281], the IC50 stood at 117 nM.

Regarding `COC[C@H](c1ccnc(NC(=O)C(NC(=O)c2nonc2OCC(F)(F)F)C2CCC(F)CC2)c1)N1C[C@@H](C(F)(F)F)NC1=O` (single isomer, unassigned) [Example 282], the half-maximal inhibitory concentration (IC50) came out at 103 nM.

Turning to `COC[C@H](c1ccnc(NC(=O)C(NC(=O)c2conc2C)C2CCC(F)CC2)c1)N1C[C@@H](C(F)(F)F)NC1=O` (single isomer, unassigned) [Example 283], the IC50 was determined as 97 nM.

Take `COC[C@H](c1ccnc(NC(=O)C(NC(=O)c2nocc2C)C2CCC(F)CC2)c1)N1C[C@@H](C(F)(F)F)NC1=O` (single isomer, unassigned) [Example 284]: the IC50 amounted to 62 nM.

For the compound `CCc1nocc1C(=O)NC(C(=O)Nc1cc([C@@H](COC)N2C[C@@H](C(F)(F)F)NC2=O)ccn1)C1CCC(F)CC1` (single isomer, unassigned) [Example 286], the IC50 is 40 nM.

Compound `COC[C@H](c1ccnc(NC(=O)C(NC(=O)c2nonc2C)C2CCC(F)CC2)c1)N1C[C@@H](C(F)(F)F)NC1=O` (single isomer, unassigned) [Example 287] returned an IC50 of 47 nM.

Compound `COC[C@H](c1ccnc(NC(=O)C(NC(=O)c2ccnn2C)C2CCC(F)CC2)c1)N1C[C@@H](C(F)(F)F)NC1=O` (single isomer, unassigned) [Example 288] registered a 50% inhibitory concentration (IC50) of 84 nM.

Regarding `COC[C@H](c1ccnc(NC(=O)C(NC(=O)c2ccnn2C(C)C)C2CCC(F)CC2)c1)N1C[C@@H](C(F)(F)F)NC1=O` (single isomer, unassigned) [Example 289], the IC50 came out at 125 nM.

Consider `CCc1nonc1C(=O)N[C@H](C(=O)Nc1cc(CN2C[C@@H](C(F)(F)F)NC2=O)ccn1)[C@H]1CC[C@H](F)CC1` (single isomer, unassigned) [Example 290], for which the IC50 came out at 160 nM.

Consider `COC[C@H](c1ccnc(NC(=O)C(NC(=O)c2nonc2C2CC2)C2CCC(C)(F)CC2)c1)N1C[C@@H](C(F)(F)F)NC1=O` (single isomer, unassigned) [Example 295], for which the IC50 is 25 nM.

`COC[C@H](c1ccnc(NC(=O)C(NC(=O)c2nonc2C2CC2)C2CCC(C)(F)CC2)c1)N1C[C@@H](C(F)(F)F)NC1=O` (single isomer, unassigned) [Example 296] displayed a 50% inhibitory concentration (IC50) of 4490 nM.

With `COC[C@H](c1ccnc(NC(=O)C(NC(=O)c2nonc2C2CC2)C2CCC(C)(F)CC2)c1)N1C[C@@H](C(F)(F)F)NC1=O` (single isomer, unassigned) [Example 297], the IC50 was determined as 4800 nM.

For the compound `COC[C@H](c1ccnc(NC(=O)C(NC(=O)c2nonc2C)C2CCC(C)(F)CC2)c1)N1C[C@@H](C(F)(F)F)NC1=O` (single isomer, unassigned) [Example 298], the concentration for half-maximal inhibition (IC50) is 85 nM.

`CCn1nccc1C(=O)NC(C(=O)Nc1cc([C@@H](COC)N2C[C@@H](C(F)(F)F)NC2=O)ccn1)C1CCC(C)(F)CC1` (single isomer, unassigned) [Example 299] had an IC50 of 72 nM.

Regarding `CCc1conc1C(=O)N[C@H](C(=O)Nc1cc([C@@H](COC)N2C[C@@H](C(F)(F)F)NC2=O)ccn1)C1CCCC(F)(F)C1` (single isomer, unassigned) [Example 304], the half-inhibitory concentration (IC50) stood at 26 nM.

Take `CCc1conc1C(=O)N[C@H](C(=O)Nc1cc([C@@H](COC)N2C[C@@H](C(F)(F)F)NC2=O)ccn1)[C@H]1CCCC(F)(F)C1` (single isomer, unassigned) [Example 305]: the IC50 was 29 nM.

As for `CCc1nocc1C(=O)N[C@H](C(=O)Nc1cc([C@@H](COC)N2C[C@@H](C(F)(F)F)NC2=O)ccn1)[C@H]1CCCC(F)(F)C1` (single isomer, unassigned) [Example 306], the IC50 was 47 nM.

In the case of `CCc1nocc1C(=O)N[C@H](C(=O)Nc1cc([C@@H](COC)N2C[C@@H](C(F)(F)F)NC2=O)ccn1)[C@H]1CCCC(F)(F)C1` (single isomer, unassigned) [Example 307], the IC50 was 51 nM.

Compound `CCn1nccc1C(=O)N[C@H](C(=O)Nc1cc([C@@H](COC)N2C[C@@H](C(F)(F)F)NC2=O)ccn1)[C@H]1CCCC(F)(F)C1` (single isomer, unassigned) [Example 308] yielded an IC50 of 74 nM.

In turn, `COC[C@H](c1ccnc(NC(=O)[C@@H](NC(=O)c2ccnn2C(C)C)[C@H]2CCCC(F)(F)C2)c1)N1C[C@@H](C(F)(F)F)NC1=O` (single isomer, unassigned) [Example 309] showed an IC50 of 98 nM.

Compound `CC(C)(C)OC(=O)N[C@H](C(=O)Nc1cc(C(NC(=O)CCC(F)(F)F)C2CC2)ccn1)[C@H]1CC[C@H](C)CC1` (single isomer, unassigned; diastereomer 1) [Example 71] returned an IC50 of 197 nM.

For the compound `CC(C)(C)OC(=O)N[C@H](C(=O)Nc1cc(C(NC(=O)CCC(F)(F)F)C2CC2)ccn1)C1CCC(F)(F)CC1` (single isomer, unassigned; diastereomer 1) [Example 72], the IC50 is 547 nM.

In turn, `COCC(NC(=O)CCC(F)(F)F)c1ccnc(NC(=O)[C@@H](NC(=O)OC(C)(C)C)C2CCC(F)(F)CC2)c1` (single isomer, unassigned; diastereomer 1) [Example 131] showed an IC50 of 680 nM.

In turn, `CC(C)(C)OC(=O)NC(C(=O)Nc1cc(CN2C[C@@H](C(F)(F)F)NC2=O)ccn1)C1CCC(F)(F)CC1` (stereo in doubt) [Example 6, Tert-butyl N-[(1S)-1-(4,4-difluorocyclohexyl)-2-oxo-2-[[4-[[(4S)-2-oxo-4-(trifluoro-methyl)imidazolidin-1-yl]methyl]-2-pyridyl]amino]ethyl]carbamate] had an IC50 of 566 nM.
